According to ChEMBL document CHEMBL1154174, “Phytochemical investigation of labdane diterpenes from the rhizomes of Hedychium spicatum and their cytotoxic activity” (Bioorg Med Chem Lett, 2009):

Legend:
Format in all cases: functional, cell-based
THP-1 = experiment: Cytotoxicity against human THP1 cells by MTT assay
HL-60 = experiment: Cytotoxicity against human HL60 cells by MTT assay
A549 = experiment: Cytotoxicity against human A549 cells by MTT assay
A-375 = experiment: Cytotoxicity against human A375 cells by MTT assay
[1] = Homo sapiens, HL-60, read-out: IC50

SMILES	IC50 (THP-1)	IC50 (HL-60; [1])	IC50 (A549)	IC50 (A-375)	IC50 (HL-60; hl-60)
CCOC(=O)/C=C/c1ccccc1 [ETHYL CINNAMATE]	41.2 µM	35.7 µM	50.4 µM	31.6 µM	–
C=C1CC[C@H]2C(C)(C)CCC[C@]2(C)[C@H]1C	53.9 µM	–	61.3 µM	50.2 µM	Not Active
CCOC(=O)/C=C/c1ccc(OC)cc1 [4-METHOXY ETHYL CINNAMATE]	33.5 µM	29.6 µM	–	31.3 µM	–
O=c1cc(-c2ccccc2)oc2cc(O)cc(O)c12 [CHRYSIN]	23.4 µM	34 µM	19.9 µM	29.7 µM	–
CC1(C)CCC[C@]2(C)[C@@H](/C=C/c3ccoc3)C(CO)=CC(=O)[C@@H]12 [YUNNACORONARIN D]	59.5 µM	36.4 µM	51.2 µM	41.9 µM	–
CC1(C)CCC[C@]2(C)[C@@H](/C=C/c3ccoc3)C(C=O)=C(O)C(=O)[C@@H]12	23.4 µM	16 µM	37.9 µM	21.6 µM	–
COc1cc([C@@H]2c3cc4c(cc3[C@@H](O[C@@H]3O[C@@H]5CO[C@@H](C)O[C@H]5[C@H](O)[C@H]3O)[C@H]3COC(=O)[C@H]23)OCO4)cc(OC)c1O [ETOPOSIDE]	1.83 µM	2.16 µM	–	–	–
CC1=CC(=O)[C@H]2C(C)(C)CCC[C@]2(C)[C@H]1/C=C/C(=O)O [SPICATANOIC ACID]	39 µM	69.4 µM	52 µM	56.1 µM	–
C=C1CC[C@H]2C(C)(C)CCC[C@]2(C)[C@H]1/C=C/c1ccoc1 [CORONARIN E]	34 µM	31.2 µM	53.3 µM	36.6 µM	–
